{"source": "patent US20230255906A1", "about": "“Targeting Serpin B9 in Cancer” (The Brigham and Women`s Hospital, Inc., priority 2020, published 2023)", "data": [{"test_system": "B16 melanoma cells", "experiment": "Caspase-3 activity assay (EnzChek Caspase-3 Assay Kit), caspase-3 induction in tumor cells; further: test concentration or dose not given here", "type": "cell-based, mouse", "conditions": "not given", "from_the_text": "(§1) The EnzChek® Caspase-3 Assay Kit was used to detect apoptosis by assaying for increases in caspase-3 activities. The basis for the assay was rhodamine 110 bis-(N-CBZ-L-aspartyl-L-glutamyl-L-valyl-L-aspartic acid amide) (Z-DEVD-R110). This substrate is a bisamide derivative of rhodamine 110 (R110) containing DEVD peptides covalently linked to each of R110's amino groups, thereby suppressing the dye's visible absorption and its fluorescence. Upon enzymatic cleavage, the nonfluorescent bisamide substrate is converted in a two-step process first to a fluorescent monoamide and then to an even more fluorescent R110.\n(§2) At least 1×10^6 cells of the lysate were used for each reaction. B16 cells were treated with compounds to induce apoptosis. A negative control was prepared by incubating cells in the absence of compounds. The cells were incubated with compounds for 24 hrs and washed in PBS. Each cell sample or control was resuspended in 50 μL of the 1×cell lysis buffer. Cells were lysed by incubating on ice for 30 minutes, and the lysed cells were centrifuged to pellet the cellular debris. 50 μL of the supernatant was transferred from each sample to individual microplate wells. 50 μL of the 1× cell lysis buffer was used as a no-enzyme control to determine the background fluorescence of the substrate. 50 μL of the 2×substrate working solution was added to each sample and control. The microplate was covered, and the samples were incubated at room temperature for approximately 30 minutes. The fluorescence was measured by a fluorescence microplate reader (excitation/emission ˜496/520 nm) using excitation and emission filters.\n(§3) The ability of this small molecule inhibitor to inhibit intracellular Sb9 was then evaluated. As a marker for cell penetration, the induction of caspase-3 activity in B16 melanoma cells as a surrogate marker for increased GrB activity was measured.\n(§4) The induction of caspase-3 activity in B16 melanoma cells as a surrogate marker for increased GrB activity was also measured for other small molecules (compounds of Formulas (V) and (VI) as described herein).", "values": [{"compound": "COc1cccc(-c2nc3ccc(C(=O)NCc4cnc(C)cn4)cc3o2)c1", "note": "[2-(3-methoxyphenyl)-N-[(5-methylpyrazin-2-yl)methyl]-1,3-benzoxazole-6-carboxamide]", "Ratio of caspase-3 activity to Formula (III)": 0.1387}, {"compound": "COc1cccc(-c2nc3ccc(C(=O)N(C)CCC4CCCCO4)cc3o2)c1", "note": "(stereo not drawn) [2-(3-methoxyphenyl)-N-methyl-N-[2-(tetrahydro-2H-pyran-2-yl)ethyl]-1,3-benzoxazole-6-carboxamide]", "Ratio of caspase-3 activity to Formula (III)": 0.1405}, {"compound": "COc1cccc(-c2nc3ccc(C(=O)N(C)Cc4nnc(C)o4)cc3o2)c1", "note": "[2-(3-methoxyphenyl)-N-methyl-N-[(5-methyl-1,3,4-oxadiazol-2-yl)methyl]-1,3-benzoxazole-6-carboxamide]", "Ratio of caspase-3 activity to Formula (III)": 0.7091}, {"compound": "COc1cccc(-c2nc3ccc(C(=O)N(C)Cc4cc(C)on4)cc3o2)c1", "note": "[2-(3-methoxyphenyl)-N-methyl-N-[(5-methylisoxazol-3-yl)methyl]-1,3-benzoxazole-6-carboxamide]", "Ratio of caspase-3 activity to Formula (III)": 0.2402}, {"compound": "CCCc1cc(CN(C)C(=O)c2ccc3nc(-c4cccc(OC)c4)oc3c2)n[nH]1", "note": "[2-(3-methoxyphenyl)-N-methyl-N-[(5-propyl-1H-pyrazol-3-yl)methyl]-1,3-benzoxazole-6-carboxamide]", "Ratio of caspase-3 activity to Formula (III)": 0.1531}, {"compound": "COc1cccc(-c2nc3ccc(C(=O)N4CCN(CCC(N)=O)CC4)cc3o2)c1", "note": "[3-(4-{[2-(3-methoxyphenyl)-1,3-benzoxazol-6-yl]carbonyl}-1-piperazinyl)propanamide]", "Ratio of caspase-3 activity to Formula (III)": 1.077}, {"compound": "CC(C)NC(=O)CCNC(=O)c1ccc2nc(-c3ccccc3)oc2c1", "note": "[3-[(2-phenyl-1,3-benzoxazol-6-yl)formamido]-N-(propan-2-yl)propanamide]", "Ratio of caspase-3 activity to Formula (III)": 1.371}, {"compound": "O=C1CN(C(=O)c2ccc3oc(-c4ccc(C(F)(F)F)cc4)nc3c2)CCN1", "note": "[4-({2-[4-(trifluoromethyl)phenyl]-1,3-benzoxazol-5-yl}carbonyl)-2-piperazinone]", "Ratio of caspase-3 activity to Formula (III)": 1.698}, {"compound": "O=C(c1ccc2oc(-c3cccc(F)c3)nc2c1)N1CCOc2ccccc2C1", "note": "[4-{[2-(3-fluorophenyl)-1,3-benzoxazol-5-yl]carbonyl}-2,3,4,5-tetrahydro-1,4-benzoxazepine]", "Ratio of caspase-3 activity to Formula (III)": 0.1627}, {"compound": "COc1cccc(-c2nc3ccc(C(=O)N4CCOC(C(N)=O)C4)cc3o2)c1", "note": "(stereo not drawn) [4-{[2-(3-methoxyphenyl)-1,3-benzoxazol-6-yl]carbonyl}morpholine-2-carboxamide]", "Ratio of caspase-3 activity to Formula (III)": 0.1611}]}, {"test_system": "B16 melanoma cells", "experiment": "Caspase-3 activity assay (EnzChek Caspase-3 Assay Kit), caspase-3 induction in tumor cells", "type": "cell-based, mouse", "conditions": "relative to compound of Formula (III)", "from_the_text": "as §1, §2, §3, §4", "units": {"Caspase-3 induction, Normalized to Formula (III) (%)": "%"}, "values": [{"compound": "COCCCNC(=O)c1cccc2oc(N(C)C)nc12", "note": "[2-(dimethylamino)-N-(3-methoxypropyl)-1,3-benzoxazole-4-carboxamide]", "Caspase-3 induction, Normalized to Formula (III) (%)": "−31.049"}, {"compound": "COCCCNC(=O)c1cccc2nc(N(C)C)oc12", "note": "[2-(dimethylamino)-N-(3-methoxypropyl)-1,3-benzoxazole-7-carboxamide]", "Caspase-3 induction, Normalized to Formula (III) (%)": "−39.581"}, {"compound": "CCN(C)C(=O)c1cccc2oc(N(C)C)nc12", "note": "[2-(dimethylamino)-N-ethyl-N-methyl-1,3-benzoxazole-4-carboxamide]", "Caspase-3 induction, Normalized to Formula (III) (%)": "−25.6782"}, {"compound": "CCN(C)C(=O)c1cccc2nc(N(C)C)oc12", "note": "[2-(dimethylamino)-N-ethyl-N-methyl-1,3-benzoxazole-7-carboxamide]", "Caspase-3 induction, Normalized to Formula (III) (%)": "−30.9946"}, {"compound": "COc1cc(Br)c(C(=O)NCC(C)C)cc1OC", "note": "[2-bromo-4,5-dimethoxy-N-(2-methylpropyl)benzamide]", "Caspase-3 induction, Normalized to Formula (III) (%)": "−58.9646"}, {"compound": "COCCCNC(=O)c1cc(OC)c(OC)cc1Br", "note": "[2-bromo-4,5-dimethoxy-N-(3-methoxypropyl)benzamide]", "Caspase-3 induction, Normalized to Formula (III) (%)": "−85.9622"}, {"compound": "COc1cc(Br)c(C(=O)NCC2CCOCC2)cc1OC", "note": "[2-bromo-4,5-dimethoxy-N-[(oxan-4-yl)methyl]benzamide]", "Caspase-3 induction, Normalized to Formula (III) (%)": "−43.6422"}, {"compound": "COc1cc(Br)c(C(=O)NCC2CCOC2)cc1OC", "note": "(stereo not drawn) [2-bromo-4,5-dimethoxy-N-[(oxolan-3-yl)methyl]benzamide]", "Caspase-3 induction, Normalized to Formula (III) (%)": "−2.142"}, {"compound": "COc1cc(Br)c(C(=O)NCCN(C)C)cc1OC", "note": "[2-bromo-N-[2-(dimethylamino)ethyl]-4,5-dimethoxybenzamide]", "Caspase-3 induction, Normalized to Formula (III) (%)": "−70.1327"}, {"compound": "COc1cc(Br)c(C(=O)NC2CCCC2)cc1OC", "note": "[2-bromo-N-cyclopentyl-4,5-dimethoxybenzamide]", "Caspase-3 induction, Normalized to Formula (III) (%)": "−49.8913"}, {"compound": "CCN(C)C(=O)c1cc(OC)c(OC)cc1Br", "note": "[2-bromo-N-ethyl-4,5-dimethoxy-N-methylbenzamide]", "Caspase-3 induction, Normalized to Formula (III) (%)": "−74.0106"}, {"compound": "O=C(c1ccc2nc(C3CCCCC3)oc2c1)N1CCCC1", "note": "[2-cyclohexyl-6-(pyrrolidine-1-carbonyl)-1,3-benzoxazole]", "Caspase-3 induction, Normalized to Formula (III) (%)": "−29.7019"}, {"compound": "COCCCNC(=O)c1ccc2nc(C3CCCCC3)oc2c1", "note": "[2-cyclohexyl-N-(3-methoxypropyl)-1,3-benzoxazole-6-carboxamide]", "Caspase-3 induction, Normalized to Formula (III) (%)": "−42.1813"}, {"compound": "O=C(NC1CCCC1)c1ccc2nc(C3CCCCC3)oc2c1", "note": "[2-cyclohexyl-N-cyclopentyl-1,3-benzoxazole-6-carboxamide]", "Caspase-3 induction, Normalized to Formula (III) (%)": 26.2507}, {"compound": "CCN(C)C(=O)c1ccc2nc(C3CCCCC3)oc2c1", "note": "[2-cyclohexyl-N-ethyl-N-methyl-1,3-benzoxazole-6-carboxamide]", "Caspase-3 induction, Normalized to Formula (III) (%)": 1.1915}, {"compound": "O=C(c1ccc2nc(C3CC3)oc2c1)N1CCCC1", "note": "[2-cyclopropyl-6-(pyrrolidine-1-carbonyl)-1,3-benzoxazole]", "Caspase-3 induction, Normalized to Formula (III) (%)": "−27.4144"}, {"compound": "COCCCNC(=O)c1ccc2nc(C3CC3)oc2c1", "note": "[2-cyclopropyl-N-(3-methoxypropyl)-1,3-benzoxazole-6-carboxamide]", "Caspase-3 induction, Normalized to Formula (III) (%)": "−4.759"}, {"compound": "CCN(C)C(=O)c1ccc2nc(C3CC3)oc2c1", "note": "[2-cyclopropyl-N-ethyl-N-methyl-1,3-benzoxazole-6-carboxamide]", "Caspase-3 induction, Normalized to Formula (III) (%)": 33.9690}, {"compound": "CCOc1ccc(C(=O)N2CCCC2)cc1O", "note": "[2-ethoxy-5-(pyrrolidine-1-carbonyl)phenol]", "Caspase-3 induction, Normalized to Formula (III) (%)": "−21.427"}, {"compound": "COc1cc(C(=O)NCC2CCOCC2)ccc1OCCC(C)C", "note": "[3-methoxy-4-(3-methylbutoxy)-N-[(oxan-4-yl)methyl]benzamide]", "Caspase-3 induction, Normalized to Formula (III) (%)": "−31.8318"}, {"compound": "COc1cc(C(=O)NCC2CCOCC2)ccc1OC(C)C", "note": "[3-methoxy-N-[(oxan-4-yl)methyl]-4-(propan-2-yloxy)benzamide]", "Caspase-3 induction, Normalized to Formula (III) (%)": "−66.2788"}, {"compound": "COc1cc(C(=O)NCC2CCOC2)ccc1OC(C)C", "note": "(stereo not drawn) [3-methoxy-N-[(oxolan-3-yl)methyl]-4-(propan-2-yloxy)benzamide]", "Caspase-3 induction, Normalized to Formula (III) (%)": "−2.673"}, {"compound": "Cc1cc(O)c(O)cc1C(=O)NCC(C)C", "note": "[4,5-dihydroxy-2-methyl-N-(2-methylpropyl)benzamide]", "Caspase-3 induction, Normalized to Formula (III) (%)": "−27.9096"}, {"compound": "COCCCNC(=O)c1cc(O)c(O)cc1C", "note": "[4,5-dihydroxy-N-(3-methoxypropyl)-2-methylbenzamide]", "Caspase-3 induction, Normalized to Formula (III) (%)": "−55.7377"}, {"compound": "CCOc1ccc(C(=O)NCC(C)C)cc1O", "note": "[4-ethoxy-3-hydroxy-N-(2-methylpropyl)benzamide]", "Caspase-3 induction, Normalized to Formula (III) (%)": "−3.559"}, {"compound": "CCOc1ccc(C(=O)NCCCOC)cc1O", "note": "[4-ethoxy-3-hydroxy-N-(3-methoxypropyl)benzamide]", "Caspase-3 induction, Normalized to Formula (III) (%)": "−35.6816"}, {"compound": "CCOc1ccc(C(=O)NCC2CCOCC2)cc1O", "note": "[4-ethoxy-3-hydroxy-N-[(oxan-4-yl)methyl]benzamide]", "Caspase-3 induction, Normalized to Formula (III) (%)": "−30.8469"}, {"compound": "CCOc1ccc(C(=O)NCC2CCOC2)cc1O", "note": "(stereo not drawn) [4-ethoxy-3-hydroxy-N-[(oxolan-3-yl)methyl]benzamide]", "Caspase-3 induction, Normalized to Formula (III) (%)": "−24.9053"}, {"compound": "CCOc1ccc(C(=O)N(C)CC)cc1O", "note": "[4-ethoxy-N-ethyl-3-hydroxy-N-methylbenzamide]", "Caspase-3 induction, Normalized to Formula (III) (%)": "−69.889"}, {"compound": "COc1cc(C(=O)NCC(C)C)cc(OC)c1O", "note": "[4-hydroxy-3,5-dimethoxy-N-(2-methylpropyl)benzamide]", "Caspase-3 induction, Normalized to Formula (III) (%)": "−25.2896"}, {"compound": "COCCCNC(=O)c1cc(OC)c(O)c(OC)c1", "note": "[4-hydroxy-3,5-dimethoxy-N-(3-methoxypropyl)benzamide]", "Caspase-3 induction, Normalized to Formula (III) (%)": "−23.5938"}, {"compound": "COc1cc(C(=O)NCC2(C)CC2)cc(OC)c1O", "note": "[4-hydroxy-3,5-dimethoxy-N-[(1-methylcyclopropyl)methyl]benzamide]", "Caspase-3 induction, Normalized to Formula (III) (%)": "−0.598"}, {"compound": "COc1cc(C(=O)NCC2CCOCC2)cc(OC)c1O", "note": "[4-hydroxy-3,5-dimethoxy-N-[(oxan-4-yl)methyl]benzamide]", "Caspase-3 induction, Normalized to Formula (III) (%)": "−78.7609"}, {"compound": "COc1cc(C(=O)NCC2CCOCC2)ccc1O", "note": "[4-hydroxy-3-methoxy-N-[(oxan-4-yl)methyl]benzamide]", "Caspase-3 induction, Normalized to Formula (III) (%)": "−76.3077"}, {"compound": "Cc1cc(O)c(O)cc1C(=O)N1CCCC1", "note": "[4-methyl-5-(pyrrolidine-1-carbonyl)benzene-1,2-diol]", "Caspase-3 induction, Normalized to Formula (III) (%)": "−40.485"}]}]}
